One series addresses CYP2D6 (Homo sapiens, UniProt P10635). Description: CYP inhibition in human liver microsomes, CYP2D6. Conditions: HLM, marker substrate Dextromethorphan. It counts as in vitro ADME. The protocol: . The inhibition of CYP2B6 and 3A4 (when midazolam was used as the substrate) by ZB716 was not observed. The inhibitory potential of ZB716 on human CYP enzyme activities appears relatively low.
The final concentrations of ZB716 in the incubation system were 0, 0.05, 0.15, 0.5, 1.5, 5, and 15 µM (final organic solvent concentration ≤ 1%). […] . […] The concentrations of the isoform-specific metabolites derived from marker substrates were measured by UPLC–MS/MS. The IC50 values were calculated from the percentages of the rate of the metabolite formation relative to non-inhibited controls vs. the concentrations of ZB716 or positive control inhibitors. All incubations were performed in triplicate. The mean of the enzyme activity (% of non-inhibited control) for each concentration was plotted against the log inhibitor concentration, and fitted to an IC50 curve.
Background: Microsomes from liver hold many membrane-bound enzymes, among them those of drug oxidation.

Another series has as its system dog hepatocytes. Description: Metabolic stability in dog hepatocytes. Conditions: 1 μM. It counts as in vitro ADME. As for the experimental part:
(§1) Hepatocytes of humans (#X008001), dogs (#M00205), rats (#M00005), and mice (#M005052) were purchased from BioIVT, NY, USA. Monkey hepatocytes were procured from RILD, Shanghai, China. The metabolic stability of ZB716 in human, monkey, dog, rat and mouse hepatocytes was investigated by incubating ZB716 with human, monkey, dog, rat, and mouse hepatocytes (0.5 × 10^6 cells/mL), or with incubation medium only.
(§2) parent disappearance vs. incubation time curve.
(§3) Scaled-up Clint = kV/N × Scaling Factor
(§4) metabolite formed during the reaction.

Series [1] in a line: Metabolic stability in dog hepatocytes. It counts as in vitro ADME. As for the experimental part: as §1, §2, §3, §4
Another series relates to rat plasma proteins. Description: Plasma protein binding by equilibrium dialysis, rat. It is filed as in vitro ADME. Conditions: for Remaining: 6 h. The protocol: (§5) The in vitro binding of ZB716 to plasma proteins was determined by equilibrium dialysis technique in mouse, rat, dog, monkey, and human plasma (EDTA-K2 as anticoagulant), over the concentration range of 0.1–10 μM. The free concentration of ZB716 was below the lower limit of quantitation at 0.1, 1, and 10 μM in human, monkey, dog, rat, and mouse plasma.
(§6) The equilibrium dialysis method was used to investigate the in vitro binding of ZB716 to human, monkey, dog, rat, and mouse plasma proteins. The dialysis phosphate buffer solution (100 mM, pH 7.4) and plasma samples containing 0.1, 1, and 10 μM of ZB716 were added to separate chambers of dialysis wells of the HTDialysis device. The dialysis plate was placed in an incubator at 37 °C with 5% CO2 at approximately 100 rpm for 6 h. After incubation, the seal was removed, and 50 μL each of post-dialysis samples was pipetted from both the buffer and plasma chambers into fresh 96-well plates. The samples were analyzed via UPLC–MS/MS. The bound fraction, unbound fraction, recovery (%), and remaining (%) were calculated by Equations (2)–(5):%Unbound = (Conc.buffer chamber/Conc.plasma chamber) × 100(2) %Bound = 100% − %Unbound (3) %Recovery = (Conc.buffer chamber + Conc.plasma chamber)/Conc.Total sample × 100 (4) %Remaining = Conc.6h/Conc.0h × 100 (5)
For orientation: Equilibrium dialysis compares concentrations on both sides of a semipermeable membrane.

Assay in series [2]: as above
It is filed as in vitro ADME. Conditions: plasma (EDTA-K2 as anticoagulant). As for the experimental part: as §5, §6

In another series the target is CYP3A5 (Homo sapiens, UniProt P20815). Description: CYP phenotyping, recombinant CYP3A5.
CYP3A5, sequence (P20815 whole entry): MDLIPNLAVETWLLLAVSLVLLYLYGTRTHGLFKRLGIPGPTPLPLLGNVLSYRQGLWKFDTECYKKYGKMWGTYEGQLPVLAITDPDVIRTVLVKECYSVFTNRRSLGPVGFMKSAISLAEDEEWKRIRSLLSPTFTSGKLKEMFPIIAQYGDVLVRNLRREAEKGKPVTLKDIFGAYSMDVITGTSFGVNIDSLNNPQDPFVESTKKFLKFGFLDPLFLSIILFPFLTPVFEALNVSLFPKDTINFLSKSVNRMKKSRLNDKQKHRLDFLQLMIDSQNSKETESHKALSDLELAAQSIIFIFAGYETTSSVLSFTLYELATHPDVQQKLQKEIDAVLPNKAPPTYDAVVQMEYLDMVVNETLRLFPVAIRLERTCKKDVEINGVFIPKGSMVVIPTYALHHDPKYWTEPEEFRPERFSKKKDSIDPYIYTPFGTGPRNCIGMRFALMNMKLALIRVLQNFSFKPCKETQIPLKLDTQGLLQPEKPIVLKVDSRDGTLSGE

The structures appear in SMILES notation. Where “and” joins values, the source holds several entries; their conditions need not be identical. Identical values can stand only once.

CYP2D6, sequence (P10635 whole entry, canonical isoform): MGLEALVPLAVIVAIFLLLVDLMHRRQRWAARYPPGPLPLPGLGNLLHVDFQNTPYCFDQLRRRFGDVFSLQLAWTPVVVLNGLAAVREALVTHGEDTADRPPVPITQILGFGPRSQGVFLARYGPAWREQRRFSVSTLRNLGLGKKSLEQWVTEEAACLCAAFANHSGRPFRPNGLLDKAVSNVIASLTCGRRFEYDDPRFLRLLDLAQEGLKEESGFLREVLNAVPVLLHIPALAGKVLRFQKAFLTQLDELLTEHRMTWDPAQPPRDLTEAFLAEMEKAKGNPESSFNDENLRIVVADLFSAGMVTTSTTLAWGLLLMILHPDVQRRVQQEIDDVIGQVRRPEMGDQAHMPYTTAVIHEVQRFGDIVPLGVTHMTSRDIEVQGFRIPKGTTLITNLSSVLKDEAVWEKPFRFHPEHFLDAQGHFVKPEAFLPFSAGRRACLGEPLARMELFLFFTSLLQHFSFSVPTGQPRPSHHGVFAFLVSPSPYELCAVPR
Experimental for CYP3A5: Bactosomes prepared from E. coli that heterologously expressed individual human CYP isoforms together with human CYP reductase were obtained from CYPEX LTD (Scotland, UK), and stored at −80 °C prior to use. […] Timepoints were taken at 0, 5, 10, 15, 20, and 30 min. Substrate disappearance was used to calculate intrinsic clearance (Clint) and half-life (t1/2). All incubations were performed in triplicate. […] The chemical inhibitors for CYP1A2, 2A6, 2B6, 2C8, 2C9, 2C19, 2D6, and 3A4 were furafylline, tranylcypromine, ticlopidine, montelukast, sulfaphenazole, N-3-benzylnirvanol, quinidine, and ketoconazole, respectively. Timepoints were collected at 0, 15, 30, 45, and 60 min, and the remaining percentage of the parent drug at each timepoint was calculated (the calculation details are available in the Supplementary Materials). All incubations were performed in triplicate.
The slope, k, was determined by linear regression of the natural logarithm of percent parent disappearance vs. incubation time curve. Peak areas for test article and internal standard were determined from extracted ion chromatograms. The peak area ratio was used to calculated for the results.
The half-life value (t1/2 rCYPi) was determined from the slope value:
Conversion of the t1/2 rCYPi (in min) into the intrinsic clearance (Clint rCYPi in μL/min/pmol) was done using the following equation:
1.3.2 For inhibition ratio (%) (Liver microsomes with and without inhibitors) The slope value, k, was determined by linear regression of the natural logarithm of the remaining percentage of the parent drug vs. incubation time curve. If the turnover was not significant (T-test with p<0.05 was not obtained) and the percentage remaining at last time point was ≥ 80%, the k value was

As for `C[C@]12CC[C@@H]3c4ccc(B(O)O)cc4C[C@@H](CCCCCCCCC[S+]([O-])CCCC(F)(F)C(F)(F)F)[C@H]3[C@@H]1CC[C@@H]2O` (stereo partly shown) [ZB716, fulvestrant-3-boronic acid], inhibition against CYP2D6 was half-maximal at 12.5 µM (IC50). In the series with dog hepatocytes, the “Remaining at 120 min” value is listed as 6.99 ± 0.46%. The half-life at 1 μM in series [1] (read-out: Estimated In Vitro t1/2) is 26.7 ± 0.4 min. In addition, the hepatocyte CLint at 1 μM in series [1] (read-out: In Vitro Clint) was 51.9 ± 0.7 µL/min/1e6 cells. In addition, the intrinsic metabolic clearance (CLint scaled) at 1 μM in series [1] (read-out: Scaled-Up Clint) was 357 ± 5 mL/min/kg. The Bound was more than 97.7% in the series on rat plasma proteins (0.1 μM), more than 99.8% in the series on rat plasma proteins (1 μM) and more than 99.97% in the series on rat plasma proteins (10 μM). Besides, the Unbound with rat plasma proteins (0.1 μM) was less than 2.35%; with rat plasma proteins (1 μM) it was less than 0.216%; in the series with rat plasma proteins (10 μM) it was less than 0.0281%. The Remaining with rat plasma proteins (0.1 μM) was 83.9 ± 8.2%; in the series on rat plasma proteins (1 μM), 91.1 ± 2.1%; in the series on rat plasma proteins (10 μM) it was 84.7 ± 2.0%. In addition, the recovery at 6 h, 0.1 μM in series [2] (pH 7.4, 0.1 μM) was less than 94.4%. This molecule gave a recovery at 6 h, 1 μM in series [2] (pH 7.4, 1 μM) of less than 94.9%. For the same molecule, the recovery at 6 h, 10 μM in series [2] (pH 7.4, 10 μM) is less than 82.1%. Besides, the half-life at 2 µM at CYP3A5 (human) came out at 2.06 ± 0.33 min. Further, on CYP3A5 (recombinant CYP3A5, 2 µM ZB716), the Clint is 6.86 µL/min/pmol CYP and 6.86 ± 1.12 µL/min/pmol CYP.

By IC50 is commonly meant the concentration that gives 50% inhibition. Higher therefore signals a need for much substance. Usually CLint scaled stands for the rate of metabolic loss divided by the concentration.

The values above are taken from PMC8400955 (Pharmaceuticals, 2021).
